Test results reported in ChEMBL document CHEMBL3137667, “[Drug-induced liver injury; fourteenth updated edition of the bibliographic database of liver injuries and related drugs]” (Gastroenterol Clin Biol, 2004).

Key:
[1] = Highest frequency of moderate liver toxicity observed during clinical trials, expressed as a percentage. [column '% BIOL' in source]; conditions: human
[2] = Proposed mechanism(s) of liver damage. [column 'MEC' in source]; conditions: human
[3] = human
[4] = human; remark: listed apart in the source
[5] = human; remark: listed apart in the source
[6] = human; remark: listed apart in the source
[7] = human; remark: listed apart in the source
[8] = human; remark: listed apart in the source
[9] = human; remark: listed apart in the source
[10] = Times to onset, minimal and maximal, observed in the indexed observations. [column 'DELAI' in source]; conditions: human
[11] = human, serum
[12] = human; remark: listed apart in the source
[13] = human, serum, 4383 h
[14] = human; remark: listed apart in the source
[15] = Highest frequency of acute liver toxicity observed during clinical trials, expressed as a percentage. [column '% AIGUE' in source]; conditions: human
[16] = Comments (NB not yet translated). [column 'COMMENTAIRES' in source]; conditions: human
[17] = human, serum; remark: listed apart in the source
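Wherever Hepatotoxicity (association with vascular disease) is given: count of indexed literature references reporting vascular liver injury in humans, e.g. peliosis hepatitis, hepatic veno-occlusive disease or Budd-Chiari syndrome.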
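Wherever Hepatotoxicity (benign tumour) is given: value is a count of indexed literature references citing a benign tumour confirmed by histopathology.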
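Wherever Hepatotoxicity (choleostasis) is given: human cholestatic liver injury, shown by histopathology or by peak ALT or AST elevation over alkaline phosphatase ratio below 2, value counts indexed literature reports.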
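Wherever Hepatotoxicity (chronic liver disease) is given: chronic liver injury confirmed by histopathology or persistently raised serum aminotransferase activity beyond 6 months, value given as the count of indexed literature references.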
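Wherever Hepatotoxicity (cirrhosis) is given: value is a count of indexed literature references reporting cirrhosis confirmed by histopathology.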
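Wherever Hepatotoxicity (cytolytic) is given: human cytolytic liver injury, shown by histopathology or by a ratio above 5 of peak ALT or AST elevation to alkaline phosphatase elevation, value counts indexed references.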
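Wherever Hepatotoxicity (granulomatous hepatitis) is given: value is a count of indexed literature references reporting granulomatous liver disease confirmed by histopathology.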
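Wherever Hepatotoxicity (malignant tumour) is given: malignant tumour confirmed by histopathology, value gives the count of indexed literature references reporting it.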
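Wherever Hepatotoxicity (severe hepatitis) is given: human clinical data: severe hepatitis, meaning potentially life-threatening liver failure or clinically observed cases, the value counts how many indexed literature references report it.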
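Wherever Hepatotoxicity (steatosis) is given: steatosis confirmed by histopathology, value is the count of indexed references.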

| Compound | Hepatotoxicity (steatosis) [5] | Hepatotoxicity (malignant tumour) [6] | Hepatotoxicity (benign tumour) [7] | Hepatotoxicity (time to onset) [10] | Hepatotoxicity (acute) [11] | Hepatotoxicity (association with vascular disease) [12] | Hepatotoxicity (chronic liver disease) [13] | Hepatotoxicity (cirrhosis) [14] | Hepatotoxicity (comment) [16] | Hepatotoxicity (moderate) [17] | Hepatotoxicity (moderate) [1] [%] | Hepatotoxicity (cytolytic) [3] | Hepatotoxicity (granulomatous hepatitis) [4] | Hepatotoxicity (choleostasis) [8] | Hepatotoxicity (severe hepatitis) [9] | Hepatotoxicity (acute) [15] [%] | further results |
| --- | --- | --- | --- | --- | --- | --- | --- | --- | --- | --- | --- | --- | --- | --- | --- | --- | --- |
| Cc1c(C)c2c(c(C)c1O)CC[C@@](C)(CCC[C@H](C)CCC[C@H](C)CCCC(C)C)O2 [ALPHA-TOCOPHEROL] | 0 | 0 | 0 | 1 week - 2 months | 3 | 0 | 0 | 0 | CONCERNE_E-FEROL* | 0 |  |  |  |  |  |  | Hepatotoxicity (moderate) ([1]; Liver): 0%; Hepatotoxicity (mechanism) ([2]; Liver): Dose-dependant; Hepatotoxicity (cytolytic) ([3]; Liver): 3; Hepatotoxicity (granulomatous hepatitis) ([4]; Liver): 0; Hepatotoxicity (choleostasis) ([8]; Liver): 3; Hepatotoxicity (severe hepatitis) ([9]; Liver): 4; Hepatotoxicity (acute) ([15]; Liver): 0% |
| CCCN(CCC)C(=O)Cc1c(-c2ccc(Cl)cc2)nc2ccc(Cl)cn12 [ALPIDEM] | 0 | 0 | 0 | 1 month - 8 months | 5 | 0 | 0 | 0 | AC_ANTI-N | 0 | 0 | 4 | 0 | 0 | 5 | 0 | Hepatotoxicity (mechanism) [2]: Allergic |
| CCOC(=O)C1=C(COCCN)NC(C)=C(C(=O)OC)C1c1ccccc1Cl (stereo unspecified) [AMLODIPINE] | 0 | 0 | 0 | 1 month - 10 months | 4 | 0 | 0 | 0 | CHOLANGIOLITE AC_ANTI-M/-N RC/DILTIAZEM | 2 |  | 3 | 0 | 2 |  |  | Hepatotoxicity (moderate) ([1]; Liver): 12.8%; Hepatotoxicity (mechanism) [2]: Allergic; Hepatotoxicity (severe hepatitis) ([9]; Liver): 0; Hepatotoxicity (acute) ([15]; Liver): 0% |
| Cc1cnc(C(=O)NCCc2ccc(S(=O)(=O)NC(=O)NC3CCCCC3)cc2)cn1 [GLIPIZIDE] | 0 | 0 | 0 | 2 days - 5 months |  | 0 | 0 | 0 | AC_ANTI-ML | 1 |  | 3 | 0 | 0 |  |  | Hepatotoxicity (moderate) ([1]; Liver): 0%; Hepatotoxicity (mechanism) [2]: Allergic; Hepatotoxicity (severe hepatitis) ([9]; Liver): 2 |
| O=C(Nc1ccc(Cl)cc1)NS(=O)(=O)c1ccc2c(c1)CCC2 [SULOFENUR] | 0 | 0 | 0 |  | 6 | 0 | 0 | 0 | CHOLANGITE | 9 | 80 | 4 | 0 | 3 | 0 | 18.8 | Hepatotoxicity (mechanism) [2]: Dose-dependant |
| Cc1cc(Br)c(O)c2ncccc12 [TILBROQUINOL] | 0 | 0 | 0 | 4 days | 1 | 0 | 0 | 0 | CHOLANGITE | 0 | 0 | 0 | 1 | 0 | 0 | 0 |  |
| Cc1ccc(O)c2ncccc12 [TILIQUINOL] | 0 | 0 | 0 | 4 days | 1 | 0 | 0 | 0 | CHOLANGITE | 0 | 0 | 0 | 1 | 0 | 0 | 0 |  |
| CN1CCN(CCCN2c3ccccc3Sc3ccc(C(F)(F)F)cc32)CC1 [TRIFLUOPERAZINE] | 0 | 0 | 0 | 2 weeks - 8 years | 5 | 0 | 0 | 1 | #CBP | 2 | 0 | 0 | 0 | 4 | 0 | 0 |  |
| Nc1ncnc2c1ncn2[C@@H]1O[C@H](CO)[C@@H](O)[C@@H]1O [VIDARABINE] | 0 | 0 | 0 | 1 week | 0 | 0 | 0 | 0 | AGGRAVATION_HEPATITE_VIRALE | 5 | 17 | 0 | 0 | 0 | 1 | 0 |  |
| ANISTREPLASE | 0 | 0 | 0 | 6 days | 1 | 0 | 0 | 0 | HEMATOME_SOUS_CAPSULAIRE | 0 | 0 | 1 | 0 | 0 | 0 | 0 |  |
| ETANERCEPT | 0 | 0 | 0 | 4 weeks - 14 weeks | 0 | 0 | 0 | 0 | CHOLECYSTITE | 2 | 5 | 0 | 0 | 0 | 0 | 0 |  |
| GONADOTROPIN, SERUM | 0 | 0 | 1 | 39 days - 6 months | 1 | 0 | 0 | 0 | HNF | 0 | 0 | 1 | 0 | 0 | 0 | 0 |  |
| INFLIXIMAB | 0 | 0 | 0 | 19 days - 19 months | 8 | 0 | 0 | 0 | CHOLANGITE CHOLECYSTITE REACTIVATION_HVB | 3 | 31.3 | 4 | 0 | 2 | 2 | 0 |  |
| RITUXIMAB | 0 | 0 | 0 | 2 months - 7 months | 4 | 0 | 0 | 0 | REACTIVATION_HVB | 1 | 5.6 | 4 | 0 | 0 | 3 | 0 |  |
